The record followed here is patent US9555086B2, “Compositions and methods for inducing an immune response” (The Regents of the University of Michigan, priority 2010, dated 2017).

“Also recorded” adds a separate entry of the source.

One data set deals with CD11c+DCs. The experiment in a line: IL-23 and IL-6 production in LPS-stimulated bone marrow-derived CD11c+DCs (ELISA). It is filed as cell-based, mouse. The settings on record: LPS-treated DCs (100 ng/ml LPS). How it is done: DBA/1 bone marrow-derived CD11c+DCs were cultured with or without 100 ng/ml LPS in the presence or absence of ISL-positive or ISL-negative 15mer peptides (50 μg/ml). Supernatants were collected at different time points and assayed for IL-23 and IL-6 content by ELISA.
(§1) To determine the rate of NO production, cells were loaded with 20 μM of the fluorescent NO probe 4,5-diaminofluorescein diacetate (DAF-2DA) and the fluorescence level was recorded every 5 minutes over a period of 500 minutes using a Fusion αHT system (PerkinElmer Life Sciences) at an excitation wavelength of 488 nm and emission wavelength of 515 nm. To determine IDO enzymatic activity, the generation of its product, kynurenine was measured (Takikawa et al. 1988. J Biol Chem 263:2041-2048.; herein incorporated by reference in its entirety). Cytokine concentrations were measured in cell culture supernatants using a Luminex platform (Millipore Corporation, Danvers, Mass.). In some experiments, cytokines were determined using ELISA (Quantikine®, R&D Systems, Minneapolis, Minn.) following the manufacture's instruction.

For another data set, the system named is trypsin and chymotrypsin. The experiment in a line: Trypsin/chymotrypsin stability assay. Particulars: after 30 minutes, 37° C., pH 8.
A further data set concerns NO signaling in DC. The experiment in a line: NO production in bone marrow-derived CD11c+ dendritic cells (DAF-2DA). Format: cell-based, mouse. Particulars: 100 μg/ml 15mer peptide; Balb/c DC; compared to ISL-negative peptides. The procedure: Bone marrow cells from Balb/c (A and B) or DBA/1 (C and D) mice were differentiated into DCs in culture with GM-CSF ([…]) and IL-4 ([…]). CD11c+ DCs were purified using magnetic beads with >95% purity. DCs were then incubated with SE-positive (65-79*0401 or 65-79*0404), or with SE-negative (65-79*0402 or 65-79*0403) 15mer peptides and NO production was measured as described below. The results are expressed as mean±SEM fluorescence units (FU), or FU per minute. *p<0.01 compared to all ligand controls.
DCs play a key role in immune regulation. […] DC cells were incubated over time with 100 μg/ml of ISL-positive or -negative 15mer peptides, and NO production was measured.
as §1, with “In some experiments, cytokines were determined using ELISA (Quantikine®, R&D Systems, Minneapolis, Minn.) following the manufacture's instruction.” left out

The next data set concerns CD8+ and CD8− DC. The experiment in a line: Cytokine production by splenic DC subsets (Luminex). Format: cell-based, mouse. How it is done: Splenic CD8+ and CD8− DC were isolated from DBA/1 mice as above and cultured in 96-well plates over time in the presence or absence of ISL-positive (65-79*0401) or ISL-negative (65-79*0402) peptides (50 μg/ml). At various time points thereafter, supernatants were collected and assayed for cytokine content, using the Luminex platform.
DBA/1 splenic unfractionated CD11c+ DCs (CD11c+), or their purified CD11c+CD8+ DCs (CD8+) or CD11c+CD8− DCs (CD8−) subsets were cultured with the ISL 65-79*0401 or ISL-negative control 65-79*0402 or medium. Supernatants were collected at different time points and assayed for cytokine content using a Luminex platform.
as §1

For a further data set, the system named is Th17 cells. The experiment in a line: Expansion of pathogen-specific Th17 cells in immunized CII-TCR Tg mice. Format: in vivo.
The next data set concerns CD4+IL17A+ T cells. The experiment in a line: Th17 differentiation and IL-17 production in DC/CD4+ T cell co-culture. Format: cell-based, mouse. Particulars: peptide-stimulated DCs; naïve T cells, Th17-polarizing cocktail, 6 days. How it is done: DBA/1 bone marrow-derived CD11c+DCs were cultured overnight in the presence or absence of (A) ISL 65-79*0401 or ISL-negative control 65-79*0402, or (B) ISL-positive T-DRB1*0401 tetramers, versus ISL-negative T-DRB1*0301, or T-DRB1*1501 tetramers. Syngeneic splenic CD4+CD25−CD62L+CD44− naïve T cells plus a Th17-differentiation cytokine/antibody cocktail were then added to the culture and incubated for 6 days. Intracellular IL17A was determined by flow cytometry. On the left: a representative experiment, one of three repetitions, showing percentages of CD4+IL17A+ cells as dot plots. On the right: bar graphs show results presented as mean percentage±SD of replicate samples.
(A) DBA/1 bone marrow-derived CD11c+ DCs were cultured overnight with different peptidic ligands as above. Syngeneic splenic CD4+ T cells plus a Th17-polarizing cocktail were added to the culture and incubated for 6 days. IL-17A-positive cells were quantified by flow cytometry. On the left: dot plots showing percentage of CD4+IL17A+ T cells. […]
After 6 days, cells were stimulated with PMA (5 ng/ml) and ionomycin (500 ng/ml) for the last 6 hrs of culture. […] Mean florescence intensity and percentages of stained cells were determined by flow cytometry.

As to H-KDLLEQKRAAVDTYC-NH2 [65-79*0401], the IL-23 production entry with CD11c+DCs is on record as “augmented”. Besides, the “degradation by trypsin/chymotrypsin (HPLC)” value in the data set with trypsin and chymotrypsin is given as “degraded completely”. Also, the NO production entry with NO signaling in DC is reported as “much more robust NO production”. Besides, the “IL-6 / cytokine production” value with CD8+ and CD8− DC (CD11c+CD8+ DCs, 50 μg/ml peptide) is “no production of any cytokines; also recorded: not in the CD11c+CD8+ subset”. In addition, the “time point of IL-6 peak” value in the data set on CD8+ and CD8− DC (CD11c+CD8− DCs) was 24 h. The IL-6 production result in the data set on CD8+ and CD8− DC (CD11c+CD8− DCs, 50 μg/ml peptide) was “robust production”. In the data set with CD8+ and CD8− DC (splenic DCs), the “production of other cytokines (IL-4, IL-10, IL-12, IL-1β, TGFβ)” value is “did not show any increased production”. The “total antigen non-stimulated Th17 cells in draining lymph nodes” value in the data set on Th17 cells (100 μg i.p. days 0, 7, 14, 21, day 42) is listed as “significant increase”. The “percentage of Th17 cells after 6 days in culture” value is 13.1±0.5% in the data set with Th17 cells (lymph node cells re-stimulated with bacterial antigen PPD); 8.4±0.5% with Th17 cells (lymph node cells stimulated with CII); 5.4±0.4% in the data set with Th17 cells (lymph node cells, without any antigen stimulation). The “differentiation of CD4+IL17A+ T cells” value in the data set on CD4+IL17A+ T cells is reported as “significant increase”.
